± gives the expanded uncertainty stated by the source.
Test: mn = molality of the nth substance listed, in mol/kg
Details: 101 kPa, Liquid; for mass density: Vibrating tube method; for speed of sound: OPTIME 1.0 from OPTEL

O=S(=O)([O-])C(F)(F)F.O=S(=O)([O-])C(F)(F)F.O=S(=O)([O-])C(F)(F)F.[Lu+3] [lutetium(III) trifluoromethanesulfonate] + C[S+](C)[O-]
Details | mass density, 293.15 K [kg/m3] | mass density, 298.15 K [kg/m3] | mass density, 303.15 K [kg/m3] | mass density, 313.15 K [kg/m3] | mass density, 323.15 K [kg/m3] | mass density, 333.15 K [kg/m3] | speed of sound, 298.15 K [m/s]
m1 = 0.01878 | 1108.65 ± 1.2 | 1103.62 ± 1.1 | 1098.6 ± 1.1 | 1088.57 ± 1.1 | 1078.53 ± 1.1 | 1068.49 ± 1.1 | –
m1 = 0.02625 | 1112.04 ± 1.2 | 1107.02 ± 1.2 | 1101.99 ± 1.1 | 1091.95 ± 1.1 | 1081.91 ± 1.1 | 1071.88 ± 1.1 | –
m1 = 0.03372 | 1115.44 ± 1.2 | 1110.42 ± 1.2 | 1105.39 ± 1.2 | 1095.36 ± 1.1 | 1085.32 ± 1.1 | 1075.28 ± 1.1 | –
m1 = 0.03373 | – | – | – | – | – | – | 1479.8 ± 2
m1 = 0.04075 | 1118.67 ± 1.2 | 1113.64 ± 1.2 | 1108.62 ± 1.2 | 1098.58 ± 1.1 | 1088.54 ± 1.1 | 1078.51 ± 1.1 | 1478.9 ± 2
m1 = 0.05063 | 1123.23 ± 1.2 | 1118.2 ± 1.2 | 1113.17 ± 1.2 | 1103.14 ± 1.2 | 1093.11 ± 1.1 | 1083.07 ± 1.1 | 1477.6 ± 2
m1 = 0.06739 | 1131.05 ± 1.2 | 1126.03 ± 1.2 | 1121 ± 1.2 | 1110.97 ± 1.2 | 1100.94 ± 1.1 | 1090.91 ± 1.1 | 1475.5 ± 2
m1 = 0.0825 | 1138.19 ± 1.2 | 1133.17 ± 1.2 | 1128.14 ± 1.2 | 1118.09 ± 1.2 | 1108.05 ± 1.2 | 1098.05 ± 1.1 | 1473.6 ± 2
m1 = 0.09757 | 1145.41 ± 1.2 | 1140.38 ± 1.2 | 1135.36 ± 1.2 | 1125.31 ± 1.2 | 1115.27 ± 1.2 | 1105.25 ± 1.2 | 1471.7 ± 2
m1 = 0.1139 | 1153.31 ± 1.3 | 1148.28 ± 1.3 | 1143.26 ± 1.2 | 1133.2 ± 1.2 | 1123.17 ± 1.2 | 1113.14 ± 1.2 | 1469.6 ± 2
m1 = 0.1294 | 1160.93 ± 1.3 | 1155.9 ± 1.3 | 1150.87 ± 1.3 | 1140.81 ± 1.2 | 1130.77 ± 1.2 | 1120.74 ± 1.2 | 1467.6 ± 2
m1 = 0.145 | 1168.67 ± 1.3 | 1163.64 ± 1.3 | 1158.61 ± 1.3 | 1148.56 ± 1.3 | 1138.52 ± 1.2 | 1128.5 ± 1.2 | 1465.7 ± 2
m1 = 0.1599 | 1176.2 ± 1.3 | 1171.16 ± 1.3 | 1166.13 ± 1.3 | 1156.07 ± 1.3 | 1146.04 ± 1.3 | 1136.01 ± 1.2 | 1463.9 ± 2

O=S(=O)([O-])C(F)(F)F.O=S(=O)([O-])C(F)(F)F.O=S(=O)([O-])C(F)(F)F.[La+3] [lanthanum(III) trifluoromethanesulfonate] + C[S+](C)[O-]
Details | mass density, 293.15 K [kg/m3] | mass density, 298.15 K [kg/m3] | mass density, 303.15 K [kg/m3] | mass density, 313.15 K [kg/m3] | mass density, 323.15 K [kg/m3] | mass density, 333.15 K [kg/m3] | speed of sound, 298.15 K [m/s]
m1 = 0.01831 | 1107.63 ± 1.1 | 1102.61 ± 1.1 | 1097.59 ± 1.1 | 1087.57 ± 1.1 | 1077.55 ± 1.1 | 1067.52 ± 1.1 | 1482.3 ± 2
m1 = 0.0248 | 1110.28 ± 1.1 | 1105.26 ± 1.1 | 1100.24 ± 1.1 | 1090.22 ± 1.1 | 1080.21 ± 1.1 | 1070.19 ± 1.1 | 1481.7 ± 2
m1 = 0.03536 | 1114.62 ± 1.2 | 1109.6 ± 1.1 | 1104.59 ± 1.1 | 1094.58 ± 1.1 | 1084.58 ± 1.1 | 1074.57 ± 1.1 | 1480.7 ± 2
m1 = 0.04296 | 1117.75 ± 1.2 | 1112.74 ± 1.2 | 1107.73 ± 1.1 | 1097.73 ± 1.1 | 1087.73 ± 1.1 | 1077.74 ± 1.1 | 1479.9 ± 2
m1 = 0.05181 | 1121.43 ± 1.2 | 1116.42 ± 1.2 | 1111.41 ± 1.1 | 1101.41 ± 1.1 | 1091.43 ± 1.1 | 1081.44 ± 1.1 | 1479 ± 2
m1 = 0.0646 | 1126.78 ± 1.2 | 1121.77 ± 1.2 | 1116.77 ± 1.2 | 1106.78 ± 1.1 | 1096.81 ± 1.1 | 1086.84 ± 1.1 | 1477.8 ± 2
m1 = 0.08309 | 1134.62 ± 1.2 | 1129.61 ± 1.2 | 1124.62 ± 1.2 | 1114.64 ± 1.2 | 1104.68 ± 1.1 | 1094.74 ± 1.1 | 1476 ± 2
m1 = 0.1003 | 1142 ± 1.2 | 1136.99 ± 1.2 | 1132 ± 1.2 | 1122.04 ± 1.2 | 1112.1 ± 1.2 | 1102.16 ± 1.1 | 1474.3 ± 2
m1 = 0.1156 | 1148.66 ± 1.2 | 1143.66 ± 1.2 | 1138.68 ± 1.2 | 1128.72 ± 1.2 | 1118.8 ± 1.2 | 1108.9 ± 1.2 | 1472.9 ± 2
m1 = 0.1362 | 1157.7 ± 1.3 | 1152.71 ± 1.2 | 1147.73 ± 1.2 | 1137.79 ± 1.2 | 1127.88 ± 1.2 | 1117.99 ± 1.2 | 1470.8 ± 2
m1 = 0.1528 | 1165.12 ± 1.3 | 1160.13 ± 1.3 | 1155.15 ± 1.3 | 1145.24 ± 1.2 | 1135.35 ± 1.2 | 1125.49 ± 1.2 | 1469.3 ± 2

From the NIST ThermoML archive (doi:10.1016/j.jct.2012.06.020)
